Results on 22 molecules are retold here after patent publication US8247610B2, “Amine linked modulators of γ-secretase” (Janssen Pharmaceutica N.V., priority 2007, dated 2012).

The structures appear in SMILES notation.

What is called inhibition is the relative decrease from the control value, in per cent. Lower therefore signals little suppression. For orientation: EC50 means the concentration at which the effect is half-maximal.

The target of the first test is T1, γ-secretase (Homo sapiens, UniProt P49768).
T1 construct: endogenous in cells; host or cells: SKNBE2 cells carrying APP 695 wild type
The experiment in a line: Screening for γ-secretase-modulating activity in SKNBE2 cells carrying the APP 695 wild type. It is filed as cell-based. To be noted: 0.3 μM; SKNBE2 cells carrying APP 695 wild type. The method, then: Screening of the Compounds of the Invention for γ-Secretase-Modulating Activity
Screening was carried out using SKNBE2 cells carrying the APP 695—wild type, grown in DMEM/NUT-mix F12 (HAM) provided by Gibco (cat no. 31330-38) containing 5% Serum/Fe supplemented with 1% non-essential amino acids.
Cells were grown to near confluency.
The screening was performed using the assay as described in Citron et al (1997) Nature Medicine 3: 67.
Take `CC(C)CCN(Cc1cc(CC(=O)O)cc(-c2ccc(C(F)(F)F)cc2)c1)Cc1ccc(Cl)c(F)c1` [Compound 57, (5-{[(4-Chloro-3-fluoro-benzyl)-(3-methyl-butyl)-amino]-methyl}-4′-trifluoromethyl-biphenyl-3-yl)-acetic acid]: the inhibition at 0.3 µM amounted to 11%. `CC(C)CC(C(=O)O)c1cc(-c2ccc(C(F)(F)F)cc2)cc(N(C)c2ccc(F)cc2C(F)(F)F)c1` (stereo not shown) [Example 11, 2-{5-[(4-Fluoro-2-trifluoromethyl-phenyl)-methyl-amino]-4′-trifluoromethyl-biphenyl-3-yl}-4-methyl-pentanoic acid] gave an inhibition at 0.3 µM of 23%. In turn, `CCN(c1cc(-c2ccc(C(F)(F)F)cc2)cc(C(CC(C)C)C(=O)O)c1)c1cccc(C(F)(F)F)c1` (stereo not shown) [Example 13, 2-{5-[Ethyl-(3-trifluoromethyl-phenyl)-amino]-4′-trifluoromethyl-biphenyl-3-yl}-4-methyl-pentanoic acid] came in with an inhibition at 0.3 µM of 16%. The same measure, in the same setting: then `CCN(c1ccc(Cl)cc1)c1cc(-c2ccc(C(F)(F)F)cc2)cc(C(CC(C)C)C(=O)O)c1` (stereo not shown) [Example 14, 2-{5-[(4-Chloro-phenyl)-ethyl-amino]-4′-trifluoromethyl-biphenyl-3-yl}-4-methyl-pentanoic acid], with 14%.

The molecule `CC(C)CC(C(=O)O)c1cc(-c2ccc(C(F)(F)F)cc2)cc(N(C)c2cc[n+](C)cc2)c1` (stereo not shown) [Example 16, 4-{[5-(1-Carboxy-3-methyl-butyl)-4′-trifluoromethyl-biphenyl-3-yl]-methyl-amino}-1-methyl-pyridinium] came in with an inhibition at 0.3 µM of 13%.

The same test, now with this note: SKNBE2 cells carrying APP 695 wild type.
In turn, `CC(C)CCN(Cc1ccc(C(F)(F)F)cc1)Cc1cc(-c2ccc(C(F)(F)F)cc2)cc(C(CC(C)C)C(=O)O)c1` (stereo not shown) [Compound 56, 4-Methyl-2-(5-{[(3-methyl-butyl)-(4-trifluoromethyl-benzyl)-amino]-methyl}-4′-trifluoromethyl-biphenyl-3-yl)-pentanoic acid] showed an EC50 of 220 nM.

On to `CC(C)CCN(Cc1ccc(C(F)(F)F)cc1)Cc1cc(CC(=O)O)cc(-c2ccc(C(F)(F)F)cc2)c1` [Compound 58, (5-{[(3-Methyl-butyl)-(4-trifluoromethyl-benzyl)-amino]-methyl}-4′-trifluoromethyl-biphenyl-3-yl)-acetic acid], for which the midpoint of the response, the EC50, lay at 590 nM. Same read-out and setting: then `CC(C)CCN(Cc1cc(F)cc(F)c1)Cc1cc(-c2ccc(C(F)(F)F)cc2)cc(C(CC(C)C)C(=O)O)c1` (stereo not shown) [Compound 59, 2-(5-{[(3,5-Difluoro-benzyl)-(3-methyl-butyl)-amino]-methyl}-4′-trifluoromethyl-biphenyl-3-yl)-4-methyl-pentanoic acid], with 240 nM. Same read-out and setting: then `CC(C)CCN(Cc1cc(-c2ccc(C(F)(F)F)cc2)cc(C(CC(C)C)C(=O)O)c1)Cc1ccc(F)cc1C(F)(F)F` (stereo not shown) [Compound 60, 2-(5-{[(4-Fluoro-2-trifluoromethyl-benzyl)-(3-methyl-butyl)-amino]-methyl}-4′-trifluoromethyl-biphenyl-3-yl)-4-methyl-pentanoic acid], with 300 nM; and `CC(C)CCN(Cc1cc(-c2ccc(C(F)(F)F)cc2)cc(C(CC(C)C)C(=O)O)c1)Cc1cccc(C(F)(F)F)c1` (stereo not shown) [Compound 61, 4-Methyl-2-(5-{[(3-methyl-butyl)-(3-trifluoromethyl-benzyl)-amino]-methyl}-4′-trifluoromethyl-biphenyl-3-yl)-pentanoic acid], with 390 nM.

Regarding `CC(C)CCN(Cc1ccc(F)cc1)Cc1cc(-c2ccc(C(F)(F)F)cc2)cc(C(CC(C)C)C(=O)O)c1` (stereo not shown) [Compound 62, 2-(5-{[(4-Fluoro-benzyl)-(3-methyl-butyl)-amino]-methyl}-4′-trifluoromethyl-biphenyl-3-yl)-4-methyl-pentanoic acid], a half-maximal effect (EC50) was put at 130 nM. For the molecule `CC(C)CCN(Cc1cc(-c2ccc(C(F)(F)F)cc2)cc([C@@H](CC(C)C)C(=O)O)c1)c1ccc(C(F)(F)F)cc1` [Compound 63, 4-Methyl-2-(5-{[(3-methyl-butyl)-(4-trifluoromethyl-phenyl)-amino]-methyl}-4′-trifluoromethyl-biphenyl-3-yl)-pentanoic acid], the EC50 was determined as 250 nM. For `CC(C)CC(C(=O)O)c1cc(-c2ccc(C(F)(F)F)cc2)cc(N(C)c2ccc(Cl)cc2)c1` (stereo not shown) [Example 1, 2-{5-[(4-Chloro-phenyl)-methyl-amino]-4′-trifluoromethyl-biphenyl-3-yl}-4-methyl-pentanoic acid], a half-maximal effect (EC50) was put at 620 nM. For `CC(C)CC(C(=O)O)c1cc(-c2ccc(C(F)(F)F)cc2)cc(N(C)c2cccc(C(F)(F)F)c2)c1` (stereo not shown) [Example 2, 4-Methyl-2-{5-[methyl-(3-trifluoromethyl-phenyl)-amino]-4′-trifluoromethyl-biphenyl-3-yl}-pentanoic acid], a half-maximal effect (EC50) was put at 220 nM. Regarding `CC(C)CC(C(=O)O)c1cc(-c2ccc(C(F)(F)F)cc2)cc(N(C)c2cc(F)cc(F)c2)c1` (stereo not shown) [Example 3, 2-{5-[(3,5-Difluoro-phenyl)-methyl-amino]-4′-trifluoromethyl-biphenyl-3-yl}-4-methyl-pentanoic acid], the EC50 came out at 450 nM. Compared with the last molecule, the EC50 is about 2-fold higher. For the molecule `CC(C)CC(C(=O)O)c1cc(-c2ccc(C(F)(F)F)cc2)cc(N(C)c2ccc(Cl)c(C(F)(F)F)c2)c1` (stereo not shown) [Example 9, 2-{5-[(4-Chloro-3-trifluoromethyl-phenyl)-methyl-amino]-4′-trifluoromethyl-biphenyl-3-yl}-4-methyl-pentanoic acid], it took 330 nM to reach a half-maximal effect (EC50). This EC50 and that of the molecule before are within 1.5-fold of each other.

As to `CC(C)CC(C(=O)O)c1cc(-c2ccc(C(F)(F)F)cc2)cc(N(C)c2cc(C(F)(F)F)cc(C(F)(F)F)c2)c1` (stereo not shown) [Example 10, 2-{5-[(3,5-Bis-trifluoromethyl-phenyl)-methyl-amino]-4′-trifluoromethyl-biphenyl-3-yl}-4-methyl-pentanoic acid], the EC50 amounted to 190 nM.

As for `CC(C)CC(C(=O)O)c1cc(-c2ccc(C(F)(F)F)cc2)cc(N(C)c2cc(C(F)(F)F)ccc2C(F)(F)F)c1` (stereo not shown) [Example 12, 2-{5-[(2,5-Bis-trifluoromethyl-phenyl)-methyl-amino]-4′-trifluoromethyl-biphenyl-3-yl}-4-methyl-pentanoic acid], the EC50 was found to be 160 nM. In turn, `CC(C)CC(C(=O)O)c1cc(-c2ccc(C(F)(F)F)cc2)cc(N(C)c2ccc(C(F)(F)F)nc2)c1` (stereo not shown) [Example 15, 4-Methyl-2-{5-[methyl-(6-trifluoromethyl-pyridin-3-yl)-amino]-4′-trifluoromethyl-biphenyl-3-yl}-pentanoic acid] displayed an EC50 of 850 nM. Compared with the last molecule, the EC50 is about 5.3-fold higher. With `CC(C)CCN(c1cc(-c2ccc(C(F)(F)F)cc2)cc(C(CC(C)C)C(=O)O)c1)c1cccc(C(F)(F)F)c1` (stereo not shown) [Example 17, 4-Methyl-2-{5-[(3-methyl-butyl)-(3-trifluoromethyl-phenyl)-amino]-4′-trifluoromethyl-biphenyl-3-yl}-pentanoic acid], a half-maximal response (EC50) required 260 nM.

The same test, now with this note: concentration not given; SKNBE2 cells carrying APP 695 wild type.
In the case of `CC(C)CC(C(=O)O)c1cc(-c2ccc(C(F)(F)F)cc2)cc(N(C)c2ccc(C(C)C)cc2)c1` (stereo not shown) [Example 7, 2-{5-[(4-Isopropyl-phenyl)-methyl-amino]-4′-trifluoromethyl-biphenyl-3-yl}-4-methyl-pentanoic acid], the “% printed in the EC50 column, no concentration given” value was determined as 8%. For the molecule `CC(C)CC(C(=O)O)c1cc(-c2ccc(C(F)(F)F)cc2)cc(N(C)c2ccc(C#N)cc2)c1` (stereo not shown) [Example 8, 2-{5-[(4-Cyano-phenyl)-methyl-amino]-4′-trifluoromethyl-biphenyl-3-yl}-4-methyl-pentanoic acid], the “% printed in the EC50 column, no concentration given” value is −0%.
